How the values were obtained:
[1] = Acute toxicity study in mice (single i.v. dose); assay type: in vivo, BALB/c mice
Protocol: Male BALB/c mice (20 ± 2) g, supplied by Harlan Italy S.r.l., San Pietro al Natisone, Udine, Italy, were acclimated at 25 °C and 55% of humidity under natural light/dark conditions for 1 week before the proposed experiments. Animal welfare was routinely checked by veterinarians of the Service for Animal Welfare and all efforts were made to minimize suffering.
The study design includes three groups of five mice each. All mice were injected with compound through the tail vein in a single systemic dose (0.05 mL per dose). The test compound was solubilized in PBS/25% DMSO. The first group was treated with dose levels of 50 mg/kg; the second received a high-dose level of 100 mg/kg, whereas the third was inoculated with the only vehicle as the control. All mice were monitored for survival and the presence of any drug-related adverse effect (local signs of inflammation, weight loss, diarrhea, and behavioral alterations) throughout the experimental period. Mice were sacrificed 4 days after treatment, and liver, kidney, and brain tissue specimens were aseptically removed, fixed in 4% formaldehyde solution, and processed for paraffin embedding. Histopathological changes in tissue specimens were evaluated in 10 randomly selected tissue sections from each organ for all the samples. Sections cut at 2 μm were stained with hematoxylin and eosin (H&E) and analyzed by a pathologist with an optical microscope (Leica, Wetzlar, Germany).

CYP3A4 = molecular target: T1, CYP3A4 (Homo sapiens, UniProt P08684); assay: CYP3A4 inhibition in human liver microsomes (testosterone 6β-hydroxylation); assay type: in vitro ADME
T1 construct: Incubations were carried out in a mix containing human liver microsomes (1 mg/mL of protein); from tissue; host or cells: human liver microsomes
T1 sequence (P08684 whole entry): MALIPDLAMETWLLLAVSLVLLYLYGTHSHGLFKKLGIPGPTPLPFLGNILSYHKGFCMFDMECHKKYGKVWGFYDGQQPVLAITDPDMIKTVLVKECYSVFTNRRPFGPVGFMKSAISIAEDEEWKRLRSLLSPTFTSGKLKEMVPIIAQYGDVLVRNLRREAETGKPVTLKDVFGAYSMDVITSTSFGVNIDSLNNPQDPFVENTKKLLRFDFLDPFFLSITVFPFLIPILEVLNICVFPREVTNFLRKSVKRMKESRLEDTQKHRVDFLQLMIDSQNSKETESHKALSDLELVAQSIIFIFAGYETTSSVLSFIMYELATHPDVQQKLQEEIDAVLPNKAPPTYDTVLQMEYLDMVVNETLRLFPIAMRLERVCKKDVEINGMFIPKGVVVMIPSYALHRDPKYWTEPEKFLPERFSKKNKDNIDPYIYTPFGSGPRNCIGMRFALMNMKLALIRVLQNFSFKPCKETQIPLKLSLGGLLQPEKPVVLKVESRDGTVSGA
Protocol: The inhibition of cytochrome P450 3A4 isoform by Si306 and pro-Si306 was measured by determining its activity on the substrate testosterone.
The activity of CYP3A4 was evaluated by measuring the 6β-hydroxylated testosterone formation (CYP3A4-specific reaction). The amount of 6β-hydroxylated metabolite was assessed in the absence and presence of Si306, pro-Si306 and ketoconazole (testosterone concentration of 100 μM in phosphate buffer 0.025 M, pH 7.4). […] Ketoconazole was used as standard selective inhibitor of CYP3A4 isoenzyme. Incubations were carried out in a mix containing human liver microsomes (1 mg/mL of protein) in phosphate buffer 0.025 M, pH 7.4, NADPH (200 μM) previously solubilized in a MgCl2 48 mM solution. The final incubation volume was 0.25 mL. After a 40 min-incubation period at 37 °C, the reaction was stopped by adding 1 mL of acetonitrile in the presence of corticosterone 2 μM as internal standard. The samples were centrifuged for 20 min at 5000 rpm. Concentrations of testosterone and its metabolite 6β-hydroxytestosterone were assessed by the HPLC method with UV detection. Calibration curve for quantitative analysis of 6β-hydroxytestosterone in the samples was obtained using commercial 6β-hydroxytestosterone purchased from Sigma Aldrich. For the statistical analysis, GraphPad InStat 3.0 (GraphPad Software, San Diego, CA, USA) was used.

For `ClC(Cn1ncc2c(Nc3cccc(Br)c3)nc(SCCN3CCOCC3)nc21)c1ccccc1` (stereo not shown) [Si306], the “microscopic alterations in liver, kidney and central nervous system” value ([1]; 50 and 100 mg/kg i.v., 4 days after treatment, H&E) was “No microscopic alterations”, the treatment-related mortality ([1]; limit test dose 100 mg/kg, i.v., four days observation) was “did not produce treatment-related mortality” and the LD50 at 4 days ([1]; male, BALB/c, mouse, in vivo, iv, single dose, mice) was greater than 100 mg/kg. For the same compound, the “behavior (apathy, hyperactivity, vomiting, diarrhea, morbidity)” value ([1]; up to 100 mg/kg i.v., four days observation) was “no significant changes occurred in the behavior”, the body weights ([1]; up to 100 mg/kg i.v., recorded daily) was “no significant changes” and the inhibition at 40 min, 50 μM (CYP3A4; pH 7.4, probe testosterone 100 μM (6β-hydroxylation), highest concentration used (1–50 μM range), not significative, read-out: maximum inhibition of CYP3A4 (testosterone 6β-hydroxylation)) was 20%. The “interaction with CYP3A4” value (CYP3A4; up to 50 μM) was “do not interact with CYP3A4”.
